# Key:
# [1] = Active agent release, Microette Hanson vertical diffusion cell, hydrophilic membrane soaked with water; details: for Release kinetics of the active agent: liquid crystal transdermal gel, Q=Q0+nt^0.5
# [2] = Active agent release, Microette Hanson vertical diffusion cell, lipophilic membrane soaked with isopropyl myristate; details: release from liquid crystal gel, FIGS. 7-14
# [3] = oral administration; cited from earlier work
SMILES,Release kinetics of the active agent [1],other results
"CNC1(c2ccccc2Cl)CCCCC1=O (stereo not shown) [Ketamine, 2-(2-chloro-phenyl)-2-(methyl-amino)-cyclohexanon]",generally follows the Higuchi-like relationship,"Active agent release in 4 hours, Hydrophilic membrane ([1]; liquid crystal gel with low molecular weight sodium-hyaluronate, ondansetron 1.2%, terbinafine 2.0%, metronidazole 0.9%, eperisone 0.8%, tolperisone 1.0%, ketamine 1.0%): 9.73 μg/cm^2; Crossing of the hydrophilic membrane ([1]; release from liquid crystal gel, FIGS. 7-14): cross the hydrophilic membrane quickly and effectively; Crossing of the membrane impregnated with lipophilic fluid [2]: do not cross the membrane impregnated with lipophilic fluid"
"CN(C/C=C/C#CC(C)(C)C)Cc1cccc2ccccc12 [Terbinafine, N-(6,6-dimethyl-2-heptene-4-inyl)-N-methyl-(E)-naphtal-1-en-methan-amine]",generally follows the Higuchi-like relationship,
"Cc1nccn1CC1CCc2c(c3ccccc3n2C)C1=O (stereo not shown) [Ondansetron, 1,2,3,9-tetrahydro-9-methyl-3-[(2-methyl-1H-imidazol-1-il)-methyl]-4H-karbazol-4-on]",generally follows the Higuchi-like relationship,
"Cc1ncc([N+](=O)[O-])n1CCO [Metronidazole, 1-(2-hydroxy-1-ethyl)-2-methyl-5-nitro-imidazol]",generally follows the Higuchi-like relationship,
"CCc1ccc(C(=O)C(C)CN2CCCCC2)cc1 (stereo not shown) [Eperisone, 1-(4-ethyl-phenyl)-2-methyl-3-(1-piperidinyl)-1-propanon]",generally follows the Higuchi-like relationship,
"CCOC(=O)C1=C[C@]2(CC)CCCN3CCc4c(n1c1ccccc41)[C@@H]32 [vinpocetine, (3α,16α)-eburnamenine-14-carboxylic acid ethylester]",,Bioavailability [3]: 6-8%
"Cc1ccc(C(=O)C(C)CN2CCCCC2)cc1 (stereo not shown) [Tolperisone, 1-piperidino-2-methyl-3-(p-tolyl)-3-propanon]",generally follows the Higuchi-like relationship,

# Reference: patent US7728042B2, “Transdermal pharmaceutical composition” (Richter Gedeon Vegyeszeti Gyar RT, priority 2003, dated 2010)
